Laboratory results: patent US20250387366A1, “TOPICAL OCULAR DELIVERY OF CROMAKALIM” (QLARIS BIO, INC., priority 2022, published 2025)
In brackets after ≈: the same amount, converted by molar mass. Like-named read-outs stand apart in the source and are kept apart here.

Key:
[1] = system: patients with primary open-angle glaucoma; conditions: Phase 2; cited from earlier work
[2] = Toxicokinetics of levcromakalim in plasma, BID T.O. bilateral formulation 3d for 28 days in rabbits (Example 12, Table 11); assay type: in vivo, rabbit; conditions: for AUC(0-t) / Cmax / Tmax / half-life: DB, rabbit, plasma, topical or ocular; for tlast: in h (unit assumed)
Procedure: Plasma concentrations of levcromakalim were evaluated in DB rabbits after twice a day (BID) oculus uterque (OU, both eyes) topical ophthalmic (T.O.) administration of formulation 3d for 28 days at dose levels of 0, 0.012, 0.03, and 0.06 mg/eye/dose.
Plasma concentrations of levcromakalim were evaluated in DB rabbits after BID OU T.O. administration of three concentrations of formulation 3d at dose levels of 0, 0.012, 0.03, and 0.06 mg/eye/dose (0, 0.024, 0.06, and 0.12 mg/eye/day respectively or 0.030% [1.0 mM], 0.075% [2.5 mM], or 0.15% [5 mM] respectively) for 28 days. Plasma was collected from 3 animals/dose group at pre-dose, 0.5, 1, 2, 3, 4, 6, and 12 hours post-first dose on Days 1 and 28.

[3] = Solubility limit of levcromakalim in water (literature); assay type: physicochemical; conditions: converted from 0.48 mg/ml
From the text: Therefore, the Chiang Lin tested material undoubtedly had insoluble material which would have a deleterious effect on the eye and nullify the results. The Hamilton article also stated that cromakalim is soluble in ethanol, DMSO and PEG, none of which would be acceptable as the topical ocular carrier for human administration.

[4] = reported by SmithKline Beecham 1993 (Hamilton et al.); cited from earlier work
KATP channels = conditions: in the presence of ATP (Brayden et al. 1991); cited from earlier work
[5] = female, 0.012 mg, females, 0.012 mg/eye/dose BID OU T.O. formulation 3d, Day 1, rabbit plasma
[6] = female, 0.012 mg, females, 0.012 mg/eye/dose BID OU T.O. formulation 3d, Day 28, rabbit plasma
[7] = female, 0.03 mg, females, 0.03 mg/eye/dose BID OU T.O. formulation 3d, Day 1, rabbit plasma
[8] = female, 0.03 mg, females, 0.03 mg/eye/dose BID OU T.O. formulation 3d, Day 28, rabbit plasma
[9] = female, 0.06 mg, females, 0.06 mg/eye/dose BID OU T.O. formulation 3d, Day 1, rabbit plasma
[10] = female, 0.06 mg, females, 0.06 mg/eye/dose BID OU T.O. formulation 3d, Day 28, rabbit plasma
[11] = females, 0.012 mg/eye/dose BID OU T.O. formulation 3d, Day 1, rabbit plasma
[12] = females, 0.012 mg/eye/dose BID OU T.O. formulation 3d, Day 28, rabbit plasma
[13] = females, 0.03 mg/eye/dose BID OU T.O. formulation 3d, Day 1, rabbit plasma
[14] = females, 0.03 mg/eye/dose BID OU T.O. formulation 3d, Day 28, rabbit plasma
[15] = females, 0.06 mg/eye/dose BID OU T.O. formulation 3d, Day 1, rabbit plasma
[16] = females, 0.06 mg/eye/dose BID OU T.O. formulation 3d, Day 28, rabbit plasma
[17] = male, 0.012 mg, males, 0.012 mg/eye/dose BID OU T.O. formulation 3d, Day 1, rabbit plasma
[18] = male, 0.012 mg, males, 0.012 mg/eye/dose BID OU T.O. formulation 3d, Day 28, rabbit plasma
[19] = male, 0.03 mg, males, 0.03 mg/eye/dose BID OU T.O. formulation 3d, Day 1, rabbit plasma
[20] = male, 0.03 mg, males, 0.03 mg/eye/dose BID OU T.O. formulation 3d, Day 28, rabbit plasma
[21] = male, 0.06 mg, males, 0.06 mg/eye/dose BID OU T.O. formulation 3d, Day 1, rabbit plasma
[22] = male, 0.06 mg, males, 0.06 mg/eye/dose BID OU T.O. formulation 3d, Day 28, rabbit plasma
[23] = males, 0.012 mg/eye/dose BID OU T.O. formulation 3d, Day 1, rabbit plasma
[24] = males, 0.012 mg/eye/dose BID OU T.O. formulation 3d, Day 28, rabbit plasma
[25] = males, 0.03 mg/eye/dose BID OU T.O. formulation 3d, Day 1, rabbit plasma
[26] = males, 0.03 mg/eye/dose BID OU T.O. formulation 3d, Day 28, rabbit plasma
[27] = males, 0.06 mg/eye/dose BID OU T.O. formulation 3d, Day 1, rabbit plasma
[28] = males, 0.06 mg/eye/dose BID OU T.O. formulation 3d, Day 28, rabbit plasma

Question: For `CC1(C)Oc2ccc(C#N)cc2[C@@H](N2CCCC2=O)[C@@H]1OP(=O)(O)O` [QLS-101], which “hyperemia (eye redness)” value [1] is on record?
Answer: Its value is “no evidence of hyperemia”.

Question: And the “safety and tolerability profile” value [1]?
Answer: The value was “favorable safety and tolerability profile”.

Question: Which AUC(0-t) [2, 5] does the source give for `CC1(C)Oc2ccc(C#N)cc2[C@@H](N2CCCC2=O)[C@@H]1O` [levcromakalim] here?
Answer: The AUC(0-t) was 0.57 ng·h/mL.

Question: And the Cmax [2, 5]?
Answer: The Cmax was 0.64 ng/mL.

Question: What about the Tmax [2, 5] of the same compound?
Answer: Its Tmax is 1.67 h.

Question: And the half-life [2, 5]?
Answer: Its half-life is 1.84 h.

Question: And the AUC(0-t) [2, 6]?
Answer: Its AUC(0-t) is 0.051 ng·h/mL.

Question: What about the Cmax [2, 6] of the same compound?
Answer: The Cmax was 0.56 ng/mL.

Question: And the Tmax [2, 6]?
Answer: Its Tmax is 0.33 h.

Question: And the AUC(0-t) [2, 7]?
Answer: Its AUC(0-t) is 3.99 ng·h/mL.

Question: And the Cmax [2, 7]?
Answer: Its Cmax is 1.75 ng/mL.

Question: What about the Tmax [2, 7] of the same compound?
Answer: The Tmax was 0.67 h.

Question: What about the half-life [2, 7] of the same compound?
Answer: The half-life was 1.7 h.

Question: What about the AUC(0-t) [2, 8] of the same compound?
Answer: The AUC(0-t) was 3.58 ng·h/mL.

Question: What about the Cmax [2, 8] of the same compound?
Answer: The Cmax was 1.76 ng/mL.

Question: And the Tmax [2, 8]?
Answer: Its Tmax is 0.67 h.

Question: What about the half-life [2, 8] of the same compound?
Answer: The half-life was 2.19 h.

Question: What about the AUC(0-t) [2, 9] of the same compound?
Answer: Its AUC(0-t) is 8.89 ng·h/mL.

Question: What about the Cmax [2, 9] of the same compound?
Answer: Its Cmax is 2.85 ng/mL.

Question: What about the Tmax [2, 9] of the same compound?
Answer: Its Tmax is 1 h.

Question: And the half-life [2, 9]?
Answer: Its half-life is 1.77 h.

Question: And the Cmax [2, 10]?
Answer: Its Cmax is 2.06 ng/mL.

Question: What about the Tmax [2, 10] of the same compound?
Answer: The Tmax was 1.2 h.

Question: And the half-life [2, 10]?
Answer: Its half-life is 1.97 h.

Question: What about the AUCtlast/Dose [2, 11] of the same compound?
Answer: Its AUCtlast/Dose is 23.74 ng·h/mL/mg.

Question: What about the Cmax/Dose [2, 11] of the same compound?
Answer: Its Cmax/Dose is 26.67 ng/mL/mg.

Question: What about the tlast [2, 11] of the same compound?
Answer: The tlast was 2.00.

Question: What about the AUCtlast/Dose [2, 12] of the same compound?
Answer: Its AUCtlast/Dose is 21.11 ng·h/mL/mg.

Question: And the Cmax/Dose [2, 12]?
Answer: The Cmax/Dose was 23.21 ng/mL/mg.

Question: And the tlast [2, 12]?
Answer: The tlast was 2.25.

Question: What about the AUCtlast/Dose [2, 13] of the same compound?
Answer: Its AUCtlast/Dose is 66.44 ng·h/mL/mg.

Question: What about the Cmax/Dose [2, 13] of the same compound?
Answer: The Cmax/Dose was 29.22 ng/mL/mg.

Question: And the tlast [2, 13]?
Answer: Its tlast is 3.67.

Question: And the AUCtlast/Dose [2, 14]?
Answer: The AUCtlast/Dose was 59.64 ng·h/mL/mg.

Question: And the Cmax/Dose [2, 14]?
Answer: Its Cmax/Dose is 29.41 ng/mL/mg.

Question: What about the tlast [2, 14] of the same compound?
Answer: Its tlast is 3.33.

Question: And the AUCtlast/Dose [2, 15]?
Answer: Its AUCtlast/Dose is 74.06 ng·h/mL/mg.

Question: What about the Cmax/Dose [2, 15] of the same compound?
Answer: The Cmax/Dose was 23.73 ng/mL/mg.

Question: What about the tlast [2, 15] of the same compound?
Answer: The tlast was 4.80.

Question: What about the AUCtlast [2, 16] of the same compound?
Answer: The AUCtlast was 6.05 ng·h/mL.

Question: And the AUCtlast/Dose [2, 16]?
Answer: Its AUCtlast/Dose is 50.39 ng·h/mL/mg.

Question: What about the Cmax/Dose [2, 16] of the same compound?
Answer: The Cmax/Dose was 17.13 ng/mL/mg.

Question: And the tlast [2, 16]?
Answer: The tlast was 4.80.

Question: What about the AUC(0-t) [2, 17] of the same compound?
Answer: The AUC(0-t) was 0.94 ng·h/mL.

Question: What about the Cmax [2, 17] of the same compound?
Answer: Its Cmax is 0.77 ng/mL.

Question: What about the Tmax [2, 17] of the same compound?
Answer: The Tmax was 1.17 h.

Question: What about the AUC(0-t) [2, 18] of the same compound?
Answer: Its AUC(0-t) is 0.14 ng·h/mL.

Question: And the Cmax [2, 18]?
Answer: Its Cmax is 0.37 ng/mL.

Question: What about the Tmax [2, 18] of the same compound?
Answer: Its Tmax is 0.33 h.

Question: And the AUC(0-t) [2, 19]?
Answer: The AUC(0-t) was 3.96 ng·h/mL.

Question: What about the Cmax [2, 19] of the same compound?
Answer: The Cmax was 2.26 ng/mL.

Question: And the Tmax [2, 19]?
Answer: Its Tmax is 0.67 h.

Question: And the half-life [2, 19]?
Answer: Its half-life is 1.28 h.

Question: What about the AUC(0-t) [2, 20] of the same compound?
Answer: The AUC(0-t) was 2.53 ng·h/mL.

Question: What about the Cmax [2, 20] of the same compound?
Answer: Its Cmax is 1.68 ng/mL.

Question: What about the Tmax [2, 20] of the same compound?
Answer: Its Tmax is 0.5 h.

Question: And the half-life [2, 20]?
Answer: Its half-life is 2.88 h.

Question: And the AUC(0-t) [2, 21]?
Answer: Its AUC(0-t) is 5.64 ng·h/mL.

Question: And the Cmax [2, 21]?
Answer: The Cmax was 2.61 ng/mL.

Question: What about the Tmax [2, 21] of the same compound?
Answer: Its Tmax is 0.7 h.

Question: What about the half-life [2, 21] of the same compound?
Answer: The half-life was 1.72 h.

Question: And the Cmax [2, 22]?
Answer: Its Cmax is 2.58 ng/mL.

Question: And the Tmax [2, 22]?
Answer: The Tmax was 0.6 h.

Question: And the half-life [2, 22]?
Answer: The half-life was 2.29 h.

Question: And the AUCtlast/Dose [2, 23]?
Answer: Its AUCtlast/Dose is 39.23 ng·h/mL/mg.

Question: And the Cmax/Dose [2, 23]?
Answer: Its Cmax/Dose is 32.12 ng/mL/mg.

Question: And the tlast [2, 23]?
Answer: The tlast was 1.50.

Question: And the AUCtlast/Dose [2, 24]?
Answer: The AUCtlast/Dose was 5.78 ng·h/mL/mg.

Question: What about the Cmax/Dose [2, 24] of the same compound?
Answer: Its Cmax/Dose is 15.40 ng/mL/mg.

Question: What about the tlast [2, 24] of the same compound?
Answer: The tlast was 0.500.

Question: And the AUCtlast/Dose [2, 25]?
Answer: The AUCtlast/Dose was 66.06 ng·h/mL/mg.

Question: And the Cmax/Dose [2, 25]?
Answer: The Cmax/Dose was 28.88 ng/mL/mg.

Question: What about the tlast [2, 25] of the same compound?
Answer: The tlast was 3.00.

Question: And the AUCtlast/Dose [2, 26]?
Answer: The AUCtlast/Dose was 42.11 ng·h/mL/mg.

Question: And the Cmax/Dose [2, 26]?
Answer: Its Cmax/Dose is 28.05 ng/mL/mg.

Question: What about the tlast [2, 26] of the same compound?
Answer: Its tlast is 2.33.

Question: And the AUCtlast/Dose [2, 27]?
Answer: Its AUCtlast/Dose is 47.04 ng·h/mL/mg.

Question: And the Cmax/Dose [2, 27]?
Answer: The Cmax/Dose was 21.78 ng/mL/mg.

Question: What about the tlast [2, 27] of the same compound?
Answer: Its tlast is 3.60.

Question: And the AUCtlast [2, 28]?
Answer: The AUCtlast was 6.11 ng·h/mL.

Question: And the AUCtlast/Dose [2, 28]?
Answer: Its AUCtlast/Dose is 50.96 ng·h/mL/mg.

Question: What about the Cmax/Dose [2, 28] of the same compound?
Answer: Its Cmax/Dose is 21.48 ng/mL/mg.

Question: And the tlast [2, 28]?
Answer: Its tlast is 4.20.

Question: And the “solubility limit in water” value [3]?
Answer: Its value is 0.048 % w/w.

Question: What about the “solubility limit in water” value [4] of the same compound?
Answer: The value was 480 µg/mL (≈ 1680 µM).

Question: For `CC1(C)Oc2ccc(C#N)cc2C(N2CCCC2=O)C1O` (centres unmarked) [Cromakalim], which “increase of open-state probability (Popen) of single KATP channels” value (KATP channels) is on record?
Answer: Its value is “more than 9 fold”.
